What was measured:
[1] = tested on: herring sperm dsDNA; assay: Acridine orange titrated with dsDNA, absorbance; format: binding; conditions: AO-DNA
Source text: Experiments were undertaken to characterize the interaction of AO with DNA over a range of DNA base pairs (bp) to AO ratios in the absence of, and in the presence of, a physiological concentration of NaCl. […] The example shown in FIG. 3-6 is a dsDNA bp: AO ratio of selected spectra denoting important transitions within the titration series are denoted with bolder lines. Some of the spectral series is not shown to simplify the data presentation. At bp: AO ratios between 0.0 and 0.75, prevalent peaks occur at 8abs of 468 nm and 492 nm. […] The absorbance spectra from bp: AO ratios above 0.75 denote a definitive red-shift in absorbance with the simultaneous creation of two distinct peaks, one at 475 nm and the other at 503 nm. With continued additions of aliquots of DNA, the absorbance peak near 468 nm is still apparent while the initial main absorbance peak at 492 nm is minimally detectable. […] Additionally, at bp:AO ratios of about 1.72. The absorbance peak near λabs 503 nm increased in amplitude with each additional aliquot of DNA. […] The association constant was calculated from a plot of delta absorbance values at 504 nm versus DNA concentration (see inset FIG. 3-7). The DNA concentrations ranged from 30:M to 170:M.

[2] = tested on: chicken erythrocyte nuclear chromatin; assay: Removal of acridine orange from stained chicken erythrocyte nuclear chromatin by xanthine rinse, fluorescence microscopy; conditions: slides stained with 10 mM AO; rinse with 50 mM for 10 minutes

Row | Compound | K ± S.D. ([1]; Absorbance (504 nm), AO [3 μM], DNA [5-170 μM], hydrochloride) | K ± S.D. ([1]; Absorbance (504 nm), AO [3 μM], DNA [5-170 μM], listed as AO-DNA, hydrochloride) | K ± S.D. ([1]; Absorbance, AO [0.1-3 μM], DNA [100 μM]) | K ± S.D. ([1]; Absorbance, AO [0.8-3.4 μM], DNA [20 μM]) | fluorescence intensity after rinse [2]
1 | CN(C)c1ccc2cc3ccc(N(C)C)cc3nc2c1.Cl [AO, 3,6-bis[dimethylamino]acridine hydrochloride] | 37,660±431 M^−1 | 37,660 ± 431 M^−1 | 33,510 ± 285 M^−1 | 31,960 ± 316 M^−1 | –
2 | Cn1c(=O)c2c(ncn2C)n(C)c1=O [1,3,7-trimethyl xanthine (caffeine), 1,3,7-trimethyl xanthine] | – | – | – | – | reduced the fluorescence intensity to background level

— US7662767B2, “Polynucleotide intercalator interceptors and inhibitors” (Materials Evolution and Development USA, Inc., priority 2000, dated 2010)
